Results reported in patent US20250221966A1, “RXFP1 AGONISTS” (BRISTOL-MYERS SQUIBB COMPANY, priority 2021, published 2025).

The compounds below were run against T1, human RXFP1 (Homo sapiens, UniProt Q9HBX9) (assay: RXFP1 cAMP assay (hRXFP1 HEK293 cAMP assay, HTRF)). Conditions: HEK293 cells stably expressing human RXFP1, 30 min at room temperature, read-out: cAMP hRXFP1 HEK293 Assay EC50.
T1 construct: expressed in transfected cells
T1 sequence (Q9HBX9 1-757): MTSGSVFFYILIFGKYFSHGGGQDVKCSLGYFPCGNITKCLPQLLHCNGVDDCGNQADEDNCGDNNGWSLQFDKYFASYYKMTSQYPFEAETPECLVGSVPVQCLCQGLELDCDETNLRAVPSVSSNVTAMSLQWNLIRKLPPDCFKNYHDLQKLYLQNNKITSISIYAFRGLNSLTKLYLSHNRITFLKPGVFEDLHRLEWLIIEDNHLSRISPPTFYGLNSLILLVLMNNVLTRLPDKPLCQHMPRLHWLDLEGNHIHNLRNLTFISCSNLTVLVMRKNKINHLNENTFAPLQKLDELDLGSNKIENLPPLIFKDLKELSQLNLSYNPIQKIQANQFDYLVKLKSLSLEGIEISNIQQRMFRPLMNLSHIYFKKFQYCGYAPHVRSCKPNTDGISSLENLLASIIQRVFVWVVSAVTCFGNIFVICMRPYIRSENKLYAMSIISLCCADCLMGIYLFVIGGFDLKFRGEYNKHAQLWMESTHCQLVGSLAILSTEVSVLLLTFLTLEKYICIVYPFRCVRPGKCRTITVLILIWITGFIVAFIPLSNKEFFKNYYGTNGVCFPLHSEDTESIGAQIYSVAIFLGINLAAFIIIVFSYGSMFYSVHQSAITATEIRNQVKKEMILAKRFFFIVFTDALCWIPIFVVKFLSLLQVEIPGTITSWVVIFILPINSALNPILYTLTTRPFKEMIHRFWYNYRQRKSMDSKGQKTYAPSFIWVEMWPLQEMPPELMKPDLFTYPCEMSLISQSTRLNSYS
Format: cell-based
In short: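 hRXFP1-HEK293 stable line; HBSS + Ca/Mg, 20 mM HEPES, 0.05% BSA, 0.5 mM IBMX; cpd 0.010 nM–50 μM, 2% DMSO; 30 min RT; lysis, HTRF cAMP detection; 4-PL fit.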

Row | Compound | EC50
1 | COc1ccc(-c2cc(C(NC(=O)C3CCOCC3)C(=O)O)ccc2F)cc1C(=O)N[C@H]1[C@@H](C(=O)Nc2ccc(F)c(C(F)(F)F)c2)[C@H]2CC[C@@H]1/C2=C\CCC(F)(F)F (some centres unmarked) [compound 940] | 4.1 nM
2 | COc1ccc(C2=NO[C@@H]3C[C@@H](CO)CN23)cc1C(=O)N[C@H]1[C@@H](C(=O)Nc2ccc(F)c(C(F)(F)F)c2)[C@H]2CC[C@@H]1/C2=C\C1CC1 [compound 849] | 2.7 nM
3 | COc1ccc(C2=NOC(C(C)(C)O)C2)cc1C(=O)N[C@H]1[C@@H](C(=O)Nc2ccc(F)c(C(F)(F)F)c2)[C@H]2CC[C@@H]1/C2=C\C1CC1 (single isomer, unassigned) [compound 524] | 21.9 nM
4 | COc1ccc(C2=NOC3CCCC23)cc1C(=O)N[C@H]1[C@@H](C(=O)Nc2ccc(F)c(C(F)(F)F)c2)[C@H]2CC[C@@H]1/C2=C\C1CC1 (single isomer, unassigned) [Example 441] | 360 nM
5 | COc1ccc(C2=NO[C@@H]3[C@H](O)CC[C@H]23)cc1C(=O)N[C@H]1[C@@H](C(=O)Nc2ccc(F)c(C(F)(F)F)c2)[C@H]2CC[C@@H]1/C2=C\C1CC1 (single isomer, unassigned) [compound 583] | 74.9 nM
6 | COc1ccc(C2=NOC3CC(C)(CO)CC23)cc1C(=O)N[C@H]1[C@@H](C(=O)Nc2ccc(F)c(C(F)(F)F)c2)[C@H]2CC[C@@H]1/C2=C\C1CCCC1 (some centres unmarked) [compound 749] | 3.3 nM
7 | C=C/C=C1\C2CCC1[C@H](C(=O)Nc1ccc(F)c(C(F)(F)F)c1)[C@@H]2NC(=O)c1cc(-c2cc(C(=O)NC)ccc2F)ccc1OC (some centres unmarked) [compound 164] | 14 nM
8 | COc1ccc(C2=NOC3COCC23)cc1C(=O)N[C@H]1[C@@H](C(=O)N[C@@H]2CCc3ccccc32)[C@H]2CC[C@@H]1/C2=C\C1CC1 (some centres unmarked) [compound 577] | 70.7 nM
9 | COc1ccc(C2=NOC3CC(NC(=O)CO)CC23)cc1C(=O)N[C@@H]1C2CCC(/C2=C/C2CC2)[C@@H]1C(=O)Nc1ccc(F)c(C(F)(F)F)c1 (some centres unmarked) [compound 743] | 5 nM
10 | O=C(N[C@H]1[C@@H](C(=O)Nc2ccc(F)c(C(F)(F)F)c2)[C@H]2CC[C@@H]1/C2=C\C1CC1)c1cc(C2=NOC3COCC23)ccc1F (single isomer, unassigned) [compound 514] | 17.2 nM
11 | COc1ccc(-c2cc(CC(=O)O)ccc2F)cc1C(=O)N[C@@H]1C2CCC(/C2=C/c2ccccc2)[C@@H]1C(=O)Nc1ccc(F)c(C(F)(F)F)c1 (some centres unmarked) [compound 187] | 19 nM
12 | COc1ccc(-c2noc(CCO)c2CCO)cc1C(=O)N[C@H]1[C@@H](C(=O)Nc2ccc(F)c(C(F)(F)F)c2)[C@H]2CC[C@@H]1/C2=C\C1CC1 [compound 531] | 22.7 nM
13 | CCC(CC)NC(=O)[C@@H]1[C@H](NC(=O)c2cc(C3=NOC4COCC34)ccc2OC)[C@@H]2CC[C@H]1/C2=C/C1CC1 (some centres unmarked) [compound 611] | 133 nM
14 | COc1ccc(C2=NOC3COCC23)cc1C(=O)N[C@H]1[C@@H](C(=O)NCC2CCCC2)[C@H]2CC[C@@H]1/C2=C\C1CC1 (some centres unmarked) [compound 592] | 87.1 nM
15 | COc1ccc(-c2cc(C(OC(=O)NC3CC3)C(F)(F)F)ccc2F)cc1C(=O)N[C@@H]1C2CCC(/C2=C/C2CC2)[C@@H]1C(=O)Nc1ccc(F)c(C(F)(F)F)c1 (some centres unmarked) [compound 208] | 1 nM
16 | COc1ccc(C2=NOC3COCC23)cc1C(=O)N[C@@H]1C2CCC(/C2=C/C2CCC2)[C@@H]1C(=O)Nc1ccc(F)c(C(F)(F)F)c1 (single isomer, unassigned) [Example 416] | 1 nM
17 | COc1ccc(-c2ccc(N3CCOCC3)nc2)cc1C(=O)N[C@H]1[C@@H](C(=O)Nc2ccc(F)c(C(F)(F)F)c2)[C@H]2CC[C@@H]1C2=C(C)C [compound 81] | 39 nM
18 | COc1ccc(C2=NOC3COCC23)cc1C(=O)N[C@H]1[C@@H](C(=O)NC2CCCCC2)[C@H]2CC[C@@H]1/C2=C\C1CC1 (some centres unmarked) [compound 552] | 36.7 nM
19 | COc1ccc(C2=NOC(CO)C2)cc1C(=O)N[C@@H]1C2CCC(/C2=C/C2CC2)[C@@H]1C(=O)Nc1ccc(F)c(C(F)(F)F)c1 (some centres unmarked) [compound 380] | 23 nM
20 | COc1ccc(C2=NOC(CC(=O)O)C2)cc1C(=O)N[C@@H]1C2CCC(/C2=C/C2CC2)[C@@H]1C(=O)Nc1ccc(F)c(C(F)(F)F)c1 (single isomer, unassigned) [Example 390] | 37 nM
21 | C=C/C=C1\C2CCC1[C@H](C(=O)Nc1ccc(F)c(C(F)(F)F)c1)[C@@H]2NC(=O)c1cc(F)c(F)cc1OC (some centres unmarked) [compound 44] | 26 nM

Row | Compound | EC50
22 | CCCCC1[C@H]2CC[C@@H]1[C@H](C(=O)Nc1ccc(F)c(C(F)(F)F)c1)[C@@H]2NC(=O)c1cc(C2=NOC3CC(CO)CC23)ccc1OC (some centres unmarked) [Example 467] | 4 nM
23 | COc1cc(F)c(F)cc1C(=O)N[C@@H]1C2CCC(/C2=C/c2ccncc2)[C@@H]1C(=O)Nc1ccc(F)c(C(F)(F)F)c1 (some centres unmarked) [compound 16] | 770 nM
24 | COc1ccc(-c2cc(C(O)C(=O)O)ccc2F)cc1C(=O)NC1C2CCC(/C2=C/C2CCCC2)C1C(=O)Nc1ccc(F)c(C(F)(F)F)c1 (centres unmarked) [compound 355] | 3 nM
25 | COc1ccc(N2CCC(NC(=O)C3CCOCC3)C2)cc1C(=O)N[C@@H]1C2CCC(/C2=C/C(F)(F)F)[C@@H]1C(=O)Nc1ccc(F)c(C(F)(F)F)c1 (single isomer, unassigned) [compound 336] | 1930 nM
26 | COc1ccc(C2=NO[C@H]3CC(CO)C[C@@H]23)cc1C(=O)N[C@H]1[C@@H](C(=O)Nc2ccc(F)c(C(F)(F)F)c2)[C@H]2CC[C@@H]1/C2=C\CC1CCC1 (some centres unmarked) [compound 837] | 4.3 nM
27 | COc1ccc([C@@H]2CO[C@H]3[C@@H]2OC[C@@H]3O)cc1C(=O)N[C@H]1[C@@H](C(=O)Nc2ccc(F)c(C(F)(F)F)c2)[C@H]2CC[C@@H]1/C2=C\C1CC1 [Example 536, (1R,2S,3R,4R,Z)-7-(cyclopropylmethylene)-N-(4-fluoro-3-(trifluoromethyl)phenyl)-3-(5-((3R,3aR,6S,6aR)-6-hydroxyhexahydrofuro[3,2-b]furan-3-yl)-2-methoxybenzamido)bicyclo[2.2.1]heptane-2-carboxamide] | 24.7 nM
28 | COc1ccc(-c2cc(C(OC(=O)NC3CCC3)C(=O)O)ccc2F)cc1C(=O)N[C@H]1[C@@H](C(=O)Nc2ccc(F)c(C(F)(F)F)c2)[C@H]2CC[C@@H]1/C2=C\C(C)C (some centres unmarked) [compound 938] | 1.7 nM
29 | COc1ccc(C2=NOC3COCC23)cc1C(=O)N[C@H]1[C@@H](C(=O)NC2CC=CC2)[C@H]2CC[C@@H]1/C2=C\C1CC1 (some centres unmarked) [compound 559] | 44.9 nM
30 | O=C(N[C@H]1[C@@H](C(=O)Nc2ccc(F)c(C(F)(F)F)c2)[C@H]2CC[C@@H]1/C2=C\C1CC1)c1cc(C2=NOC3CC(CO)CC23)cc(F)c1OCC(F)F (some centres unmarked) [compound 789] | 4.4 nM
31 | COc1c(F)cc(C2=NOC3CC(CO)CC23)cc1C(=O)N[C@H]1[C@@H](C(=O)N[C@H](C)C2(C)CC2(F)F)[C@H]2CC[C@@H]1/C2=C\C1CC1 (some centres unmarked) [compound 756] | 0.4 nM
32 | COc1ccc(-c2cc(OC(F)(F)F)ccc2F)cc1C(=O)N[C@@H]1C2CCC(/C2=C/C2CC2)[C@@H]1C(=O)Nc1ccc(F)c(C(F)(F)F)c1 (some centres unmarked) [compound 285] | 7 nM
33 | Cc1ccc(C2=NOC3COCC23)cc1C(=O)N[C@H]1[C@@H](C(=O)Nc2ccc(F)c(C(F)(F)F)c2)[C@H]2CC[C@@H]1/C2=C\C1CC1 (single isomer, unassigned) [compound 654] | 300 nM
34 | CCC(NC(=O)[C@@H]1[C@H](NC(=O)c2cc(C3=NOC4COCC34)ccc2OC)[C@@H]2CC[C@H]1/C2=C/C1CC1)c1ccccc1C (single isomer, unassigned) [compound 656] | 311 nM
35 | COc1ccc(-c2cc(S(=O)(=O)NC(C)(C)C)ccc2F)cc1C(=O)N[C@H]1[C@@H](C(=O)N[C@H](C)C2(C)CC2)[C@H]2CC[C@@H]1/C2=C\C1CC1 [compound 957] | 5.3 nM
36 | COc1ccc(N2CC(CO)CC2=O)cc1C(=O)N[C@H]1[C@@H](C(=O)Nc2ccc(F)c(C(F)(F)F)c2)[C@H]2CC[C@@H]1/C2=C\C1CC1 (some centres unmarked) [compound 526] | 22.4 nM
37 | O=C(NC1CCC1)OC(c1ccc(F)c(-c2ccc(OCc3ccccc3)c(C(=O)N[C@@H]3C4CCC(/C4=C/C4CC4)[C@@H]3C(=O)Nc3ccc(F)c(C(F)(F)F)c3)c2)c1)C(F)(F)F (some centres unmarked) [compound 252] | 11 nM
38 | COc1ccc(C2=NOC3CC(CO)CC23)cc1C(=O)N[C@H]1[C@@H](C(=O)NC23CC(C)(C2)C3)[C@H]2CC[C@@H]1/C2=C\C1CC1 (some centres unmarked) [compound 774] | 4.1 nM
39 | COc1ccc(C2=NOC(C(=O)OC(C)(C)C)C2)cc1C(=O)N[C@@H]1C2CCC(/C2=C/C2CC2)[C@@H]1C(=O)Nc1ccc(F)c(C(F)(F)F)c1 (some centres unmarked) [compound 386] | 71 nM
40 | COc1ccc(-c2cc(C3=NOC4CC(CO)CC34)ccc2F)cc1C(=O)N[C@H]1[C@@H](C(=O)Nc2ccc(F)c(C(F)(F)F)c2)[C@H]2CC[C@@H]1/C2=C\C1CCCC1 (some centres unmarked) [compound 949] | 3.6 nM
41 | COc1c(F)cc(C2=NOC3CC(CO)CC23)cc1C(=O)N[C@H]1[C@@H](C(=O)N[C@H](C)C2(C)CC2(F)F)[C@H]2CC[C@@H]1/C2=C\C1CC1 (some centres unmarked) [compound 759] | 1 nM
